Reference: publication PMC12977544, “Phenotypic high-throughput screening identifies modulators of gut microbial choline metabolism” (mBio, 2026)
Values after ≈ are worked out from the molar mass of the structure shown.

Key:
E. coli MS 200-1 [1] = assay: TMA inhibition in bacterial whole cells (LC–MS/MS of d9-TMA from d9-choline); format: cell-based, Escherichia coli MS 200-1; settings: 1 mM d9-choline in PBS, 75 min, 37°C, anaerobic
Experimental: (§1) For TMA inhibition assays, E. coli and P. mirabilis were grown in NCE medium supplemented with 20 mM choline chloride, A. hydrogenalis was grown in MEGA medium supplemented with 3 mM choline chloride, and C. sporogenes was grown in BHI medium supplemented with 20 mM of choline chloride to induce expression of the cut gene cluster. For MIC assays, all bacteria strains were grown in MEGA medium.
(§2) Compounds were stored as 10 mM DMSO stocks at –20°C and diluted in DMSO to prepare varying concentrations of inhibitors for testing. Bacteria were grown anaerobically overnight in media supplemented with choline as described above. Cells were pelleted and resuspended in PBS, and d9-choline chloride was added to a final concentration of 1 mM. The final OD600 of the PBS cell resuspensions is as follows: 0.4 (E. coli), 0.15–0.2 (P. mirabilis), 0.2 (C. sporogenes), and 0.4 (A. hydrogenalis). The resuspended cells were added to 96-well plates containing inhibitors (final concentration of 1% DMSO, with final inhibitor concentrations ranging between 0 and 325 µM). The plates were sealed and incubated for 75 min (or 90 min for P. mirabilis) at 37°C. Following incubation, the plates were removed from the anaerobic chamber and analyzed immediately or kept at –20°C until LC–MS/MS analysis. Each inhibitor concentration was tested in triplicate. EC50 values were calculated with GraphPad Prism by fitting the log(inhibitor) vs response—Variable slope (four-parameter) model for non-linear regression.
(§3) Samples were kept frozen until analysis and kept cold on ice during handling due to the volatility of TMA. Bacterial cell resuspensions in PBS were diluted 100-fold in LCMS-grade acetonitrile with 0.1% formic acid to lyse cells, precipitate proteins, and extract metabolites. Samples were centrifuged at 4,000 rpm for 10 min at 4°C to pellet proteins. The supernatants were then further diluted 20-fold in LCMS-grade acetonitrile with 0.1% formic acid, and the resulting solution was analyzed by LC–MS/MS.
(§4) LC–MS/MS analysis was performed on an Agilent 1290/6470 Triple Quadrupole LC–MS instrument (Agilent Technologies) using electrospray ionization. The mass spectrometer was operated in multiple reaction monitoring (MRM) mode with positive ionization monitoring. The precursor–product ion pairs used in MRM mode were as follows: m/z 69.1m/z → 49.1 (d9-TMA) and m/z 113.2 m/z → 69.1 (d9-choline). The capillary voltage was set to 4.0 kV, and the fragmentor voltage was set to 30 V (d9-TMA) and 115 V (d9-choline). The collision energy for the precursor–product ion pairs was set to 29 V (d9-TMA) and 21 V (d9-choline). MS^1 resolution was set to wide and MS^2 resolution to unit. The drying gas temperature was maintained at 250°C, with a flow rate of 11 L/min and a nebulizer pressure of 45 psi. The time filter width used was 0.07 min. The injection volume of all samples was 1 μL. Samples were injected onto InfinityLab Poroshell 120 (Agilent) HILIC columns (2.7 μm, 100 mm × 2.1 mm, 100 Å) preceded by InfinityLab Poroshell 120 HILIC guard columns (2.1 mm, 1.9µm UHPLC guard). The LC conditions on the binary pump were as follows: a gradient of 5–35% A increasing over 1.95 min (1.2 mL/min), a gradient of 35–5% A decreasing over 0.05 min (1.6 mL/min), and held at 5% A for 0.5 min (2 mL/min). […] Solvent A was 10 mM ammonium formate with 0.1% formic acid, and solvent B was acetonitrile with 0.1% formic acid. Data analysis was performed with Mass Hunter Workstation Data Acquisition and Qualitative Analysis software (Agilent Technologies).

[2] = test system: choline-metabolizing gut bacteria (E. coli, P. mirabilis, C. sporogenes, A. hydrogenalis); assay: TMA inhibition across the panel of four choline-metabolizing gut bacteria; format: cell-based; settings: compared with compound 6
From the text: We then used secondary assays to prioritize scaffolds that had broad-spectrum TMA inhibitory activity against additional choline-metabolizing gut bacteria. For this, we used Clostridium sporogenes ATCC 15579, a human gut isolate that is able to efficiently ferment choline in addition to other carbon sources, as well as Anaerococcus hydrogenalis DSM 7454 and Proteus mirabilis ATCC 29906, human gut isolates previously identified to metabolize choline in vitro ([61]). In particular, E. coli MS 200-1 and C. sporogenes ATCC 15579 have been used in gnotobiotic studies to investigate the effects of bacterial choline metabolism on the host and microbiome ([46], [61], [62]). These strains are representative of taxa frequently detected in humans ([63]) and, together with E. coli, are representative of the major phyla and genera in which TMA producers have been detected across human gut isolates ([48]). Importantly, this group of strains included both gram-positive and gram-negative bacteria. Gram-negative bacteria have an additional outer membrane layer and associated efflux pumps ([29]), which typically decreases small molecule permeability compared to gram-positive bacteria. It also included bacteria with cut gene cluster architectures that differ in the number and types of microcompartment proteins encoded and in the size of the CutC enzyme ([48]). We hypothesized that testing the inhibitors against multiple choline-utilizing gut bacteria would increase the likelihood of identifying compounds with broad-spectrum activity.
as §2

[3] = test system: Proteus mirabilis ATCC 29906; assay: TMA inhibition in bacterial whole cells (LC–MS/MS of d9-TMA from d9-choline); format: cell-based; settings: 1 mM d9-choline in PBS, 90 min, 37°C, anaerobic; for EC50: read-out: EC50 in whole cells, P. mirabilis (TMA inhibition)
Experimental: as §1, §2, §3, §4

[4] = test system: Anaerococcus hydrogenalis DSM 7454; assay: as above; format: cell-based; settings: 1 mM d9-choline in PBS, 75 min, 37°C, anaerobic
Experimental: as §1, §2, §3, §4

[5] = test system: Clostridium sporogenes ATCC 15579; assay: as above; format: cell-based; settings: 1 mM d9-choline in PBS, 75 min, 37°C, anaerobic
Experimental: as §1, §2, §3, §4

E. coli MS 200-1 [6] = assay: MIC in MEGA medium; format: cell-based, Escherichia coli MS 200-1; settings: anaerobic, 37°C, 24 h, up to 200 µM
Experimental: as §1

[7] = test system: Proteus mirabilis ATCC 29906; assay: MIC in MEGA medium; format: cell-based; settings: anaerobic, 37°C, 24 h, up to 200 µM; read-out: MIC in MEGA medium, P. mirabilis
Experimental: as §1

[8] = test system: Bacteroides ovatus ATCC 8483; assay: MIC in MEGA medium; format: cell-based; settings: anaerobic, 37°C, 24 h, up to 200 µM; read-out: MIC in MEGA medium, B. ovatus
Experimental: as §1

[9] = test system: Bacteroides caccae ATCC 43185; assay: MIC in MEGA medium; format: cell-based; settings: anaerobic, 37°C, 24 h, up to 200 µM; read-out: MIC in MEGA medium, B. caccae
Experimental: as §1

[10] = test system: Anaerococcus hydrogenalis DSM 7454; assay: MIC in MEGA medium; format: cell-based; settings: anaerobic, 37°C, 24 h, up to 200 µM
Experimental: as §1

[11] = test system: Eubacterium rectale ATCC 33656; assay: MIC in MEGA medium; format: cell-based; settings: anaerobic, 37°C, 24 h, up to 200 µM; read-out: MIC in MEGA medium, E. rectale
Experimental: as §1

[12] = test system: Collinsella aerofaciens ATCC 25986; assay: MIC in MEGA medium; format: cell-based; settings: anaerobic, 37°C, 24 h, up to 200 µM
Experimental: as §1

[13] = test system: Bacteroides thetaiotaomicron VPI-5482; assay: MIC in MEGA medium; format: cell-based; settings: anaerobic, 37°C, 24 h, up to 200 µM; read-out: MIC in MEGA medium, B. thetaiotaomicron
Experimental: as §1

[14] = test system: Clostridium sporogenes ATCC 15579; assay: MIC in MEGA medium; format: cell-based; settings: anaerobic, 37°C, 24 h, up to 200 µM
Experimental: as §1

[15] = test system: panel of commensal bacterial strains; assay: MIC against panel of nine gut commensal bacteria; settings: of 9 bacterial strains tested
[16] = biological target: T1, purified CutC (choline trimethylamine-lyase) (Oleidesulfovibrio alaskensis, UniProt Q30W70); assay: In vitro CutC activity assay coupled to YADH/NADH (absorbance 340 nm); format: biochemical, Desulfovibrio desulfuricans G20; settings: 5 nM CutC, 200 µM choline, 20°C, anaerobic
T1 construct: made in house
T1 sequence (Q30W70 53-846): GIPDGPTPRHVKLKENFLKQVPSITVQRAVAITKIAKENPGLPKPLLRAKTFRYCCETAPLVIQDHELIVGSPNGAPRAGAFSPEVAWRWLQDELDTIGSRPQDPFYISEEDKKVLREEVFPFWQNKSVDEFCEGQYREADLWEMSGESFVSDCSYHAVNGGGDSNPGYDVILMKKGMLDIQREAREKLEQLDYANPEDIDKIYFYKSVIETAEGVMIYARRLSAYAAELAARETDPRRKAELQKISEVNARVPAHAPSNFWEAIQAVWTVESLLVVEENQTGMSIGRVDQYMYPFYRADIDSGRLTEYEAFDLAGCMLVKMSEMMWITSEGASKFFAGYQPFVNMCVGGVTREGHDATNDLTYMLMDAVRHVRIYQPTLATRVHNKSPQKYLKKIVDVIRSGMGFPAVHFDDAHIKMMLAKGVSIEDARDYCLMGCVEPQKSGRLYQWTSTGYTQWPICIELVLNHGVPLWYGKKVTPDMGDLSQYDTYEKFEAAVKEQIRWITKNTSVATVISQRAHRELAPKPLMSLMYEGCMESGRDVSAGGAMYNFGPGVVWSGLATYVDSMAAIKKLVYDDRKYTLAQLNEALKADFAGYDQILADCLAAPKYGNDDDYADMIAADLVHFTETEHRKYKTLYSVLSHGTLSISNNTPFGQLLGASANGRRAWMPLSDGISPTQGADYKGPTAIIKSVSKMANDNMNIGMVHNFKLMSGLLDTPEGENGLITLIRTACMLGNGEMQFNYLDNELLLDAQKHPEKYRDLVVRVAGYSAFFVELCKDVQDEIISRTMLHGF
Experimental: To investigate if our compounds were inhibiting CutC directly, we tested their activity toward the purified enzyme. The activity of CutC was determined using a coupled enzyme assay, where the acetaldehyde product from the cleavage of choline to TMA is reduced to ethanol by yeast alcohol dehydrogenase (YADH) using nicotinamide adenine dinucleotide (NADH) as a cofactor. The consumption of NADH results in a change in absorption at 340 nm, and this rate of change of absorption was used to calculate the initial rates of reaction of CutC in the presence of varying concentrations of inhibitors ([14], [65]).
CutC and CutD enzymes from Desulfovibrio desulfuricans G20 were purified, CutC was activated by incubation with CutD, and the amount of glycyl radical installation was quantified as previously described ([15]). The IC50 of compounds was determined in an in vitro CutC activity assay, where CutC activity is coupled to the NADH-dependent enzymatic reduction of acetaldehyde by YADH ([15]). Briefly, assays were conducted in an anaerobic chamber (MBraun) under N2 atmosphere at 20°C. In 50 mM potassium phosphate buffer (pH 8.0, 50 mM KCl), 40 µM of CutD and 150 µM of sodium dithionite were incubated for 20 min before the addition of 200 µM of SAM and 20 µM of CutC monomer. The mixture was incubated for 1 h to activate the glycyl radical enzyme, after which the activated CutC mixture was diluted […] in 50 mM potassium phosphate buffer (pH 8.0, 50 mM KCl). A master mix containing 200 µM NADH, 0.4 µM YADH (Sigma), and the diluted CutC mixture (5 nM final concentration in assay) was prepared and aliquoted into 96-well plates (180 µL per well). Ten microliters of inhibitor or DMSO vehicle was added, followed by 10 µL of aqueous choline chloride solution (final concentration 200 µM). Absorbance was measured at 340 nm immediately after addition of all assay components, with measurements taken every 20 s for 10 min. Initial rates were calculated from absorbance measurements and fitted to Michaelis–Menten equation using nonlinear regression in GraphPad Prism 10 (v. 10.4.0). Background activity was subtracted using no substrate controls, and initial rates for each inhibitor concentration were normalized to no inhibitor controls. IC50 values were obtained by plotting normalized activity values against the logarithm of inhibitor concentration and fitting to a nonlinear regression model in GraphPad Prism 10 (v. 10.4.0).

Cc1ccc(-c2cc(C(=O)NCCCN3CCC(C)CC3)c[nH]2)cc1C [Compound 7]
EC50 (E. coli MS 200-1 [1]): 16 µM
Fold reduction of potency across all four choline-metabolizing bacteria [2]: about 2 fold
EC50 [3]: 80 µM
EC50 [4]: 66 µM
EC50 [5]: 215 µM

Cc1ccc(-c2cc(C(=O)NCCCN3CCC(C)CC3)c(C)n2Cc2ccccc2)cc1C [Compound 19]
EC50 (E. coli MS 200-1 [1]): 28 µM
MIC (E. coli MS 200-1 [6]): > 200 µM
MIC [7]: > 200 µM
MIC [8]: 25 µM (≈ 11.4 µg/mL)
MIC [9]: > 200 µM
MIC [10]: 25 µM (≈ 11.4 µg/mL)
MIC [11]: 25 µM (≈ 11.4 µg/mL)
MIC [12]: 6.25 µM (≈ 2.86 µg/mL)
MIC [13]: 50 µM (≈ 22.9 µg/mL)
MIC [14]: > 200 µM
Bacterial strains with growth inhibited (MIC < 200 µM) [15]: five out of 9
EC50 [5]: 4 µM

Cc1[nH]ccc1C(=O)NCCCN1CCC(C)CC1 [Compound 20]
EC50 (E. coli MS 200-1 [1]): > 125 µM
IC50 [16]: > 125 µM
EC50 in whole cells, P. mirabilis (TMA inhibition) [3]: No inhibition at 312
EC50 in whole cells, A. hydrogenalis (TMA inhibition) [4]: No inhibition at 312
EC50 in whole cells, C. sporogenes (TMA inhibition) [5]: No inhibition at 312

Cc1cccc(-c2cc(C(=O)NCCCN3CCC(C)CC3)c(C)[nH]2)c1 [Compound 23]
EC50 (E. coli MS 200-1 [1]): 5 µM
MIC (E. coli MS 200-1 [6]): > 200 µM
MIC [7]: > 200 µM
MIC [8]: > 200 µM
MIC [9]: > 200 µM
MIC [10]: > 200 µM
MIC [11]: > 200 µM
MIC [12]: 200 µM (≈ 70.7 µg/mL)
MIC [13]: > 200 µM
MIC [14]: > 200 µM
IC50 [16]: 64 µM
EC50 [3]: 46 µM
EC50 [4]: 35 µM
EC50 [5]: 95 µM
